The results in this text go back to patent US20170129903A1, “COMPOUNDS COMPRISING 1,1a,2,5a-TETRAHYDROSPIRO[INDOLE-3,2a-PYRROLE]-2,5a-DIONE SYSTEM AS INHIBITORS P53-MDM2 PROTEIN-PROTEIN INTERACTION” (ADAMED SP. Z O.O., priority 2014, published 2017).

Experiment [1] relates to SJSA-1 osteosarcoma cell line. Put plainly: MTT cell viability assay. Format: cell-based. The following applies: Homo sapiens, SJSA-1, 72 h, 72 h incubation, average of 2-5 experiments. How it is done: The effect of the invented p53-Mdm2 inhibitors on cell viability has been assessed using MTT assay. It is a colorimetric assay that measures conversion of tetrazolium ring of the soluble yellow dye (MTT) into insoluble purple formazan. This process is catalysed solely in mitochondrial dehydrogenases of living cells.
Cells were seeded on 96-well plates and then treated with successive dilutions of tested compounds. After 72 h incubation, MTT was added to the final concentration 0.5 mg/ml. The cells were further incubated for the next 4 h. Then the solution was drained and the remaining formazan crystals were dissolved in 100 μl DMSO. […] All the MTT experiments were independently repeated 2-5 times. Dose-dependent binding curves and IC50 values were calculated using GraphPad Prism 5.

Experiment [2] addresses T1, p53-Mdm2 interaction (N-terminal domain of Mdm2 protein, amino acids 1-111) (Homo sapiens, UniProt Q00987).
T1 construct: N-terminal domain of Mdm2 protein (amino acids 1-111)
The experiment is described as follows: Fluorescence polarization (FP) binding assay of p53-Mdm2 interaction. The settings on record: for Ki: FP assay, 130 nM Mdm2, FAM-labelled p53 peptide, Ki transformed from IC50 using Kenakin equation. The procedure:
The inhibition of p53-Mdm2 interaction was measured using a fluorescence polarization (FP) binding assay. FP measures the rotational movement of molecules in a homogenous suspension. For this assay, N-terminal domain of Mdm2 protein (amino acids 1-111) is combined with a fluorescein-labelled (FAM) peptide derived from p53 trans-activation domain. Upon excitation of the fluorescent ligand with linearly polarized light, […]. If the peptide is bound by Mdm2, rotation will slow down and the perpendicular component will decrease. Disruption of the formation of the peptide-Mdm2 complex due to an inhibitor molecule binding to the p53 binding site of Mdm2 results in faster rotation of the peptide.
Fluorescence polarization experiments were read on Tecan Infinite M1000 reader with the 470 nm excitation and 520 nm emission filters for fluorescein. The fluorescence polarization was measured in black 96-well plates (Corning, CLS3991) in room temperature. Purity of Mdm2 was controlled at >95%. Reaction buffer was optimized by adding 5 mM DTT and 0.1% zwitterionic detergent CHAPS to reduce effect of nonspecific interactions.
The test was performed by combining successive dilution of compounds diluted in dimethyl sulfoxide (DMSO, 5% final concentration) with 130 nM Mdm2 in reaction buffer (PBS, 0.1% CHAPS, 5 mM DTT (dithiothreitol)). After 15 minutes of incubation in room temperature […] FAM-labelled peptide was added. Final reading was performed after 90 minutes of incubation. Dose-dependent binding curves and IC50 values were calculated using GraphPad Prism5 and next transformed to Ki values using Kenakin equation.

T1 sequence (Q00987 1-111): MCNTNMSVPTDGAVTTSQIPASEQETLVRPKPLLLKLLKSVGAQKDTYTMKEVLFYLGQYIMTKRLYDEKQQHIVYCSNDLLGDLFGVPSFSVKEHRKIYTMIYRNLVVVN

Compound `Cc1ccc(Cl)cc1N1C(=O)c2n[nH]c(C3(C)CC3)c2C12C(=O)Nc1cc(Cl)ccc12` (stereo not shown) [Compound 18, 6-chloro-5′-(5-chloro-2-methylphenyl)-3′-(1-methylcyclopropyl)-1,2,5′,6′-tetrahydro-2′H-spiro[indole-3,4′-pyrrolo [3,4-c]pyrazole]-2,6′-dione] gave an IC50 in experiment [1] of 10.8 µM. For the same compound, the affinity in experiment [2] corresponds to a Ki of 45 nM.
Compound `CC1(c2[nH]nc3c2C2(C(=O)Nc4cc(Cl)ccc42)N(c2cccc(Cl)c2)C3=O)CC1` (stereo not shown) [Compound 19, 6-chloro-5′-(3-chlorophenyl)-3′-(1-methylcyclopropyl)-1,2,5′,6′-tetrahydro-2′H-spiro[indole-3,4′-pyrrolo[3,4-c]pyrazole]-2,6′-dione] showed a half-inhibitory concentration (IC50) in experiment [1] of 22.3 µM. In experiment [2], the Ki came out at 64 nM.
The like results for `CC(C)(C)c1[nH]nc2c1C1(C(=O)Nc3cc(Cl)ccc31)N(c1cccc(Cl)c1)C2=O` (stereo not shown) [Compound 20, 3′-tert-butyl-6-chloro-5′-(3-chlorophenyl)-1,2,5′,6′-tetrahydro-2′H-spiro[indole-3,4′-pyrrolo[3,4-c]pyrazole]-2,6′-dione] were, in that order, 21.2 µM and 24 nM.
`COc1ccc(Cl)cc1N1C(=O)c2n[nH]c(C(C)(C)C)c2C12C(=O)Nc1cc(Cl)ccc12` (stereo not shown) [Compound 21, 3′-tert-butyl-6-chloro-5′-(5-chloro-2-methoxyphenyl)-1,2,5′,6′-tetrahydro-2′H-spiro[indole-3,4′-pyrrolo[3,4-c]pyrazole]-2,6′-dione] registered an IC50 in experiment [1] of 15.1 µM. For the same compound, the Ki in experiment [2] was found to be 70 nM.
With `COc1ccc(Cl)cc1N1C(=O)c2n[nH]c(C3(C)CC3)c2C12C(=O)Nc1cc(Cl)ccc12` (stereo not shown) [Compound 22, 6-chloro-5′-(5-chloro-2-methoxyphenyl)-3′-(1-methylcyclopropyl)-1,2,5′,6′-tetrahydro-2′H-spiro[indole-3,4′-pyrrolo [3,4-c]pyrazole]-2,6′-dione], half-maximal inhibition in experiment [1] (IC50) required 6.95 µM. Besides, in experiment [2], the affinity corresponds to a Ki of 120 nM.
The like results for `Cc1ccc(Cl)cc1N1C(=O)c2n[nH]c(C(C)C)c2C12C(=O)Nc1cc(Cl)ccc12` (stereo not shown) [Compound 23, 6-chloro-5′-(5-chloro-2-methylphenyl)-3′-(propan-2-yl)-1,2,5′,6′-tetrahydro-2′H-spiro[indole-3,4′-pyrrolo[3,4-c]pyrazole]-2,6′-dione] were, in that order, 10.2 µM and 20 nM.
The like results for `CC(C)c1[nH]nc2c1C1(C(=O)Nc3cc(Cl)ccc31)N(c1cc(Cl)ccc1O)C2=O` (stereo not shown) [Compound 24, 6-chloro-5′-(5-chloro-2-hydroxyphenyl)-3′-(propan-2-yl)-1,2,5′,6′-tetrahydro-2′H-spiro[indole-3,4′-pyrrolo[3,4-c]pyrazole]-2,6′-dione] were, in that order, 33.5 µM and 54 nM.
With `COc1ccc(Cl)cc1N1C(=O)c2n[nH]c(C(C)C)c2C12C(=O)Nc1cc(Cl)ccc12` (stereo not shown) [Compound 25, 6-chloro-5′-(5-chloro-2-methoxyphenyl)-3′-(propan-2-yl)-1,2,5′,6′-tetrahydro-2′H-spiro[indole-3,4′-pyrrolo[3,4-c]pyrazole]-2,6′-dione], half-maximal inhibition in experiment [1] (IC50) required 10.2 µM. The same compound gave an inhibition constant (Ki) in experiment [2] of 94 nM.
Taken in the same sequence, the figures for `COc1ccccc1-n1nc2c(c1C1(C)CC1)C1(C(=O)Nc3cc(Cl)ccc31)N(c1cccc(Cl)c1)C2=O` (stereo not shown) [Compound 26, 6-chloro-5′-(3-chlorophenyl)-2′-(2-methoxyphenyl)-3′-(1-methylcyclopropyl)-1,2,5′,6′-tetrahydro-2′H-spiro[indole-3,4′-pyrrolo[3,4-c]pyrazole]-2,6′-dione] were 4.91 µM and 23 nM.
Compound `O=C1C(O)=C(Sc2ccc(Cl)cc2)[C@]2(C(=O)Nc3cc(Cl)ccc32)N1c1cccc(Cl)c1` [Compound 55, (3S)-6-chloro-1′-(3-chlorophenyl)-3′-[(4-chlorophenyl)sulfanyl]-4′-hydroxy-1,1′,2,5′-tetrahydrospiro[indole-3,2′-pyrrole]-2,5′-dione] had a Ki in experiment [2] of 1910 nM. Also, the “times less potent than Compound 56 (enantiomer)” value in experiment [2] (G=S) is recorded as “about 19 times”.
Take `O=C1C(O)=C(Sc2ccc(Cl)cc2)[C@@]2(C(=O)Nc3cc(Cl)ccc32)N1c1cccc(Cl)c1` [Compound 56, (3R)-6-chloro-1′-(3-chlorophenyl)-3′[(4-chlorophenyl)sulfanyl]-4′-hydroxy-1,1′,2,5′-tetrahydrospiro[indole-3,2′-pyrrole]-2,5′-dione]: in experiment [2], the affinity corresponds to a Ki of 100 nM.
Still for that read-out and setting: then `CCC(C)SC1=C(O)C(=O)N(c2cccc(Cl)c2)C12C(=O)Nc1cc(Cl)ccc12` (stereo not shown) [Compound 57, 3′-(butan-2-ylsulfanyl)-6-chloro-1′-(3-chlorophenyl)-4′-hydroxy-1,1′,2,5′-tetrahydrospiro[indole-3,2′-pyrrole]-2,5′-dione], with 79 nM.
Same read-out and setting: next, `CC(C)(C)SC1=C(O)C(=O)N(c2cccc(Cl)c2)C12C(=O)Nc1cc(Cl)ccc12` (stereo not shown) [Compound 58, 3′-(tert-butylsulfanyl)-6-chloro-1′-(3-chlorophenyl)-4′-hydroxy-1,1′,2,5′-tetrahydrospiro[indole-3,2′-pyrrole]-2,5′-dione]: 82 nM; `COc1ccccc1-n1nc2c(c1C(C)C)C1(C(=O)Nc3cc(Cl)ccc31)N(c1cc(Cl)c(=O)n(C)c1)C2=O` (stereo not shown) [Compound 63, 6-chloro-5′-(5-chloro-1-methyl-6-oxo-1,6-dihydropyridin-3-yl)-2′-(2-methoxy-phenyl)-3′-(propan-2-yl)-1,2,5′,6′-tetrahydro-2′H-spiro[indole-3,4′-pyrrolo [3,4-c]pyrazole]-2,6′-dione]: 2.4 nM; `COc1cccc(OC)c1-n1nc2c(c1C(C)C)C1(C(=O)Nc3cc(Cl)ccc31)N(c1cc(Cl)ccc1C)C2=O` (stereo not shown) [Compound 70, 6-chloro-5′-(5-chloro-2-methylphenyl)-2′-(2,6-dimethoxyphenyl)-3′-(propan-2-yl)-1,2,5′,6′-tetrahydro-2′H-spiro[indole-3,4′-pyrrolo[3,4-c]pyrazole]-2,6′-dione]: 120 nM.
In the case of `COc1ccc(C(N)=O)cc1-n1nc2c(c1C(C)C)C1(C(=O)Nc3cc(Cl)ccc31)N(c1cc(Cl)ccc1O)C2=O` (stereo not shown) [Compound 75, 3-[6-chloro-5′-(5-chloro-2-hydroxy-phenyl)-2,6′-dioxo-3′-(propan-2-yl)-1,2,5′,6′-tetrahydro-2′H-spiro[indole-3,4′-pyrrolo[3,4-c]pyrazole]-2′-yl]-4-methoxybenzamide], affinity in experiment [2] was put at a Ki of 3.6 nM.
Consider `COc1ccc(C(=O)O)cc1-n1nc2c(c1C(C)C)C1(C(=O)Nc3cc(Cl)ccc31)N(c1cc(Cl)ccc1O)C2=O` (stereo not shown) [Compound 76, 3-[6-chloro-5′-(5-chloro-2-hydroxy-phenyl)-2,6′-dioxo-3′-(propan-2-yl)-1,2,5′,6′-tetrahydro-2′H-spiro[indole-3,4′-pyrrolo[3,4-c]pyrazole]-2′-yl]-4-methoxybenzoic acid], for which, in experiment [2], the affinity corresponds to a Ki of 3.6 nM.
Still for that read-out and setting: then `CC(C)c1[nH]nc2c1C1(C(=O)Nc3cc(Cl)ccc31)N(c1cc(Cl)ccn1)C2=O` (stereo not shown) [Compound 82, 6-chloro-5′-(4-chloropyridin-2-yl)-3′-(propan-2-yl)-1,2,5′,6′-tetrahydro-2′H-spiro [indole-3,4′-pyrrolo[3,4-c]pyrazole]-2,6′-dione], with 425 nM; and `CC(C)c1[nH]nc2c1C1(C(=O)Nc3cc(Cl)ccc31)N(c1cncc(Cl)c1)C2=O` (stereo not shown) [Compound 83, 6-chloro-5′-(5-chloropyridin-3-yl)-3′-(propan-2-yl)-1,2,5′,6′-tetrahydro-2′H-spiro [indole-3,4′-pyrrolo[3,4-c]pyrazole]-2,6′-dione], with 152 nM.
For the compound `COc1ccccc1-n1cc2c(c1C(C)C)C1(C(=O)Nc3cc(Cl)ccc31)N(c1cccc(Cl)c1)C2=O` (stereo not shown) [Compound 89, 6-chloro-2′-(3-chlorophenyl)-5′-(2-methoxyphenyl)-6′-(propan-2-yl)-1,2,3′,5′-tetrahydro-2′H-spiro[indole-3,1′-pyrrolo [3,4-c]pyrrole]-2,3′-dione], the affinity in experiment [2], expressed as Ki, was 5.3 nM.
Still for that read-out and setting: next, `COc1ccccc1-n1cc2c(c1C(C)C)C1(C(=O)Nc3cc(Cl)ccc31)N(c1cc(Cl)ccc1N)C2=O` (stereo not shown) [Compound 91, 2′-(2-amino-5-chlorophenyl)-6-chloro-5′-(2-methoxyphenyl)-6′-(propan-2-yl)-1,2,3′,5′-tetrahydro-2′H-spiro[indole-3,1′-pyrrolo[3,4-c]pyrrole]-2,3′-dione]: 4.5 nM.
